Laboratory results published in US20020052295A1, “Diacyl derivatives of propylene diamine having herbicidal activity” (priority 1999, published 2002).

Tests used:
[1] = test system: ABUTH; assay: Pre-emergence herbicidal activity on ABUTH (velvetleaf); assay type: in vivo, Abutilon theophrasti; conditions: lowest tested rate giving 80% or greater inhibition, approx. 14 days after planting and treating, greenhouse
In short: (§1)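 Steps: sterilized fertilized topsoil potted; seeds sown, covered; compound (50:50 acetone/water dilution) applied to soil surface; 0.64 cm overhead irrigation; greenhouse 30/21 °C day/night; % inhibition vs untreated scored at ~14 d; GR80 calculated.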

[2] = test system: SOLNI; assay: Pre-emergence herbicidal activity on SOLNI (black nightshade); assay type: in vivo, Solanum nigrum; conditions: lowest tested rate giving 80% or greater inhibition, approx. 14 days after planting and treating, greenhouse
In short: as §1

[3] = test system: AMARE; assay: Pre-emergence herbicidal activity on AMARE (redroot pigweed); assay type: in vivo, Amaranthus retroflexus; conditions: lowest tested rate giving 80% or greater inhibition, approx. 14 days after planting and treating, greenhouse
In short: as §1

[4] = test system: DATST; assay: Pre-emergence herbicidal activity on DATST (jimsonweed); assay type: in vivo, Datura stramonium; conditions: lowest tested rate giving 80% or greater inhibition, approx. 14 days after planting and treating, greenhouse
In short: as §1

[5] = test system: CHEAL; assay: Pre-emergence herbicidal activity on CHEAL (common lambsquarters); assay type: in vivo, Chenopodium album; conditions: lowest tested rate giving 80% or greater inhibition, approx. 14 days after planting and treating, greenhouse
In short: as §1

[6] = test system: CONAR; assay: Pre-emergence herbicidal activity on CONAR (field bindweed); assay type: in vivo, Convolvulus arvensis; conditions: lowest tested rate giving 80% or greater inhibition, approx. 14 days after planting and treating, greenhouse
In short: as §1

[7] = test system: POROL; assay: Pre-emergence herbicidal activity on POROL (common purslane); assay type: in vivo, Portulaca oleracea; conditions: lowest tested rate giving 80% or greater inhibition, approx. 14 days after planting and treating, greenhouse
In short: as §1

[8] = test system: CIRAR; assay: Pre-emergence herbicidal activity on CIRAR (canada thistle, seedling); assay type: in vivo, Cirsium arvense; conditions: lowest tested rate giving 80% or greater inhibition, approx. 14 days after planting and treating, greenhouse
In short: as §1

[9] = test system: ECHCG; assay: Pre-emergence herbicidal activity on ECHCG (barnyardgrass); assay type: in vivo, Echinochloa crus-galli; conditions: lowest tested rate giving 80% or greater inhibition, approx. 14 days after planting and treating, greenhouse
In short: as §1

[10] = test system: PANMI; assay: Pre-emergence herbicidal activity on PANMI (wild proso millet); assay type: in vivo, Panicum miliaceum; conditions: lowest tested rate giving 80% or greater inhibition, approx. 14 days after planting and treating, greenhouse
In short: as §1

[11] = test system: SORHA; assay: Pre-emergence herbicidal activity on SORHA (johnsongrass, seedling); assay type: in vivo, Sorghum halepense; conditions: lowest tested rate giving 80% or greater inhibition, approx. 14 days after planting and treating, greenhouse
In short: as §1

[12] = test system: SETFA; assay: Pre-emergence herbicidal activity on SETFA (giant foxtail); assay type: in vivo, Setaria faberi; conditions: lowest tested rate giving 80% or greater inhibition, approx. 14 days after planting and treating, greenhouse
In short: as §1

[13] = test system: PANDI; assay: Pre-emergence herbicidal activity on PANDI (fall panicum); assay type: in vivo, Panicum dichotomiflorum; conditions: lowest tested rate giving 80% or greater inhibition, approx. 14 days after planting and treating, greenhouse
In short: as §1

[14] = test system: SORVU; assay: Pre-emergence herbicidal activity on SORVU (shattercane); assay type: in vivo, Sorghum vulgare; conditions: lowest tested rate giving 80% or greater inhibition, approx. 14 days after planting and treating, greenhouse
In short: as §1

[15] = test system: BRAPP; assay: Pre-emergence herbicidal activity on BRAPP (broadleaf signalgrass); assay type: in vivo, Brachiaria platyphylla; conditions: lowest tested rate giving 80% or greater inhibition, approx. 14 days after planting and treating, greenhouse
In short: as §1

[16] = test system: DIGSA; assay: Pre-emergence herbicidal activity on DIGSA (large crabgrass); assay type: in vivo, Digitaria sanguinalis; conditions: lowest tested rate giving 80% or greater inhibition, approx. 14 days after planting and treating, greenhouse
In short: as §1

[17] = test system: ABUTH; assay: Post-emergence herbicidal activity on ABUTH (velvetleaf); assay type: in vivo, Abutilon theophrasti; conditions: post-emergence spray; lowest tested rate with 80% or greater inhibition; about 14 days after treatment
Excerpt: (§2) All such uses, and the biological activity enabling such uses, are embraced by the term “herbicidal” herein. Tables 15 and 16 summarize results of tests conducted as described below to determine the pre-emergence herbicidal activity, in the form of a GR80 value, of illustrative compounds of this invention. […] Where herbicidal activity was evident but 80% inhibition was not achieved at the highest rate tested (typically 1000 g/ha), an asterisk (*) is shown in the following tables. Herbicidal activity evident in the form of symptoms of phytotoxicity, in the absence of at least 80% inhibition at any rate, is indicated in the tables by “phyto”. A blank cell in the following tables indicates no herbicidal or phytotoxic response at any rate tested.
(§3) In another set of tests, the post-emergence activity of compounds of this invention was evaluated on the cool season species listed above. The following procedure was used.
(§4) A pre-prepared topsoil mixture (described above) was placed in a pot and compacted to a depth of 1.0 to 1.25 cm from the top of the pot. Seeds of each of several monocotyledonous and dicotyledonous annual plant species were placed on top of the soil The seeds were covered with a mixture of 50% topsoil and 50% Rediearth™ in sufficient quantity to level-fill the pots. The pots were then placed on a greenhouse bench and subirrigated as needed until plants growing from the seeds had emerged and reached a suitable growth stage for post-emergence treatment, typically 9 to 14 days after planting.
(§5) A known amount of each test compound dissolved or suspended in an appropriate organic solvent was diluted with a 50:50 mix of acetone and water and applied to the plants by spraying with a standard spray nozzle in a spray volume of 3,100 l/ha at a spray pressure of […] (30 psig). Control plants were not sprayed.
(§6) After treatment the plants were placed in a greenhouse with a 30/21° C. day/night temperature regime and were subsequently watered as needed for growth. Approximately 14 days after treatment, the plants were observed and herbicidal efficacy recorded as percent inhibition by comparison with control plants.

[18] = test system: SOLNI; assay: Post-emergence herbicidal activity on SOLNI (black nightshade); assay type: in vivo, Solanum nigrum; conditions: post-emergence spray; lowest tested rate with 80% or greater inhibition; about 14 days after treatment
Excerpt: as §2, §3, §4, §5, §6

[19] = test system: AMARE; assay: Post-emergence herbicidal activity on AMARE (redroot pigweed); assay type: in vivo, Amaranthus retroflexus; conditions: post-emergence spray; lowest tested rate with 80% or greater inhibition; about 14 days after treatment
Excerpt: as §2, §3, §4, §5, §6

[20] = test system: DATST; assay: Post-emergence herbicidal activity on DATST (jimsonweed); assay type: in vivo, Datura stramonium; conditions: post-emergence spray; lowest tested rate with 80% or greater inhibition; about 14 days after treatment
Excerpt: as §2, §3, §4, §5, §6

[21] = test system: CHEAL; assay: Post-emergence herbicidal activity on CHEAL (common lambsquarters); assay type: in vivo, Chenopodium album; conditions: post-emergence spray; lowest tested rate with 80% or greater inhibition; about 14 days after treatment
Excerpt: as §2, §3, §4, §5, §6

[22] = test system: CONAR; assay: Post-emergence herbicidal activity on CONAR (field bindweed); assay type: in vivo, Convolvulus arvensis; conditions: post-emergence spray; lowest tested rate with 80% or greater inhibition; about 14 days after treatment
Excerpt: as §2, §3, §4, §5, §6

[23] = test system: POROL; assay: Post-emergence herbicidal activity on POROL (common purslane; table head prints PORAL); assay type: in vivo, Portulaca oleracea; conditions: post-emergence spray; lowest tested rate with 80% or greater inhibition; about 14 days after treatment
Excerpt: as §2, §3, §4, §5, §6

[24] = test system: ECHCG; assay: Post-emergence herbicidal activity on ECHCG (barnyardgrass); assay type: in vivo, Echinochloa crus-galli; conditions: post-emergence spray; lowest tested rate with 80% or greater inhibition; about 14 days after treatment
Excerpt: as §2, §3, §4, §5, §6

[25] = test system: PANMI; assay: Post-emergence herbicidal activity on PANMI (wild proso millet); assay type: in vivo, Panicum miliaceum; conditions: post-emergence spray; lowest tested rate with 80% or greater inhibition; about 14 days after treatment
[26] = test system: SORHA; assay: Post-emergence herbicidal activity on SORHA (johnsongrass, seedling); assay type: in vivo, Sorghum halepense; conditions: post-emergence spray; lowest tested rate with 80% or greater inhibition; about 14 days after treatment
Excerpt: as §2, §3, §4, §5, §6

[27] = test system: SETFA; assay: Post-emergence herbicidal activity on SETFA (giant foxtail); assay type: in vivo, Setaria faberi; conditions: post-emergence spray; lowest tested rate with 80% or greater inhibition; about 14 days after treatment
Excerpt: as §2, §3, §4, §5, §6

[28] = test system: PANDI; assay: Post-emergence herbicidal activity on PANDI (fall panicum); assay type: in vivo, Panicum dichotomiflorum; conditions: post-emergence spray; lowest tested rate with 80% or greater inhibition; about 14 days after treatment
Excerpt: as §2, §3, §4, §5, §6

[29] = test system: SORVU; assay: Post-emergence herbicidal activity on SORVU (shattercane); assay type: in vivo, Sorghum vulgare; conditions: post-emergence spray; lowest tested rate with 80% or greater inhibition; about 14 days after treatment
Excerpt: as §2, §3, §4, §5, §6

[30] = test system: BRAPP; assay: Post-emergence herbicidal activity on BRAPP (broadleaf signalgrass); assay type: in vivo, Brachiaria platyphylla; conditions: post-emergence spray; lowest tested rate with 80% or greater inhibition; about 14 days after treatment
Excerpt: as §2, §3, §4, §5, §6

[31] = test system: DIGSA; assay: Post-emergence herbicidal activity on DIGSA (large crabgrass); assay type: in vivo, Digitaria sanguinalis; conditions: post-emergence spray; lowest tested rate with 80% or greater inhibition; about 14 days after treatment

CCSc1ncccc1C(=O)NC(C)CNC(=O)c1cccc(C(F)(F)F)c1 (stereo not shown) [Example 243, 2-ethylthio-N-[1-methyl-2-(3-trifluoromethyl)phenylcarbonylamino]ethyl-3-pyridinecarboxamide]
Pre-emergence activity (GR80) on ABUTH [1]: 500 g/ha | Pre-emergence activity (GR80) on SOLNI [2]: 250 g/ha | Pre-emergence activity (GR80) on AMARE [3]: 750 g/ha | Pre-emergence activity (GR80) on DATST [4]: 250 g/ha | Pre-emergence activity (GR80) on CHEAL [5]: 250 g/ha | Pre-emergence activity (GR80) on CONAR [6]: 250 g/ha | Pre-emergence activity (GR80) on PORAL [7]: 250 g/ha | Pre-emergence activity (GR80) on CIRAR [8]: 250 g/ha | Pre-emergence activity (GR80) on ECHCG [9]: 1000 g/ha | Pre-emergence activity (GR80) on PANMI [10]: 750 g/ha | Pre-emergence activity (GR80) on SORHA [11]: * (Where herbicidal activity was evident but 80% inhibition was not achieved at the highest rate tested (typically 1000 g/ha), an asterisk (*) is shown) | Pre-emergence activity (GR80) on SETFA [12]: 500 g/ha | Pre-emergence activity (GR80) on PANDI [13]: 500 g/ha | Pre-emergence activity (GR80) on SORVU [14]: phyto | Pre-emergence activity (GR80) on BRAPP [15]: 500 g/ha | Pre-emergence activity (GR80) on DIGSA [16]: 500 g/ha | Post-emergence activity (GR80) ABUTH [17]: phyto | Post-emergence activity (GR80) SOLNI [18]: phyto | Post-emergence activity (GR80) AMARE [19]: phyto | Post-emergence activity (GR80) DATST [20]: 750 g/ha | Post-emergence activity (GR80) CHEAL [21]: phyto | Post-emergence activity (GR80) CONAR [22]: * (Where herbicidal activity was evident but 80% inhibition was not achieved at the highest rate tested (typically 1000 g/ha), an asterisk (*) is shown) | Post-emergence activity (GR80) PORAL [23]: * (Where herbicidal activity was evident but 80% inhibition was not achieved at the highest rate tested (typically 1000 g/ha), an asterisk (*) is shown) | Post-emergence activity (GR80) ECHCG [24]: [empty] | Post-emergence activity (GR80) PANMI [25]: [empty] | Post-emergence activity (GR80) SORHA [26]: [empty] | Post-emergence activity (GR80) SETFA [27]: [empty] | Post-emergence activity (GR80) PANDI [28]: [empty] | Post-emergence activity (GR80) SORVU [29]: [empty] | Post-emergence activity (GR80) BRAPP [30]: [empty] | Post-emergence activity (GR80) DIGSA [31]: [empty]
